Data taken from ChEMBL document CHEMBL4483862, “Open-source discovery of chemical leads for next-generation chemoprotective antimalarials” (2018).

Tested on: Plasmodium berghei
Assay: Luciferase/luciferin-expressing antifolate-resistant parasites were used to infect a culture of HepG2 cells that were pre-incubated with compounds. Infected hepatocytes emit light due to the luciferase reaction. Assay results are presented as the percent inhibition of light emission compared to control. […]
Format: functional
Settings: sporozoite; for IC90: read-out: LUCIFERASE INFECTION ASSAY - IC90
[1] = read-out: LUCIFERASE INFECTION ASSAY - IC50

SMILES | IC90 | further results
COc1ccc(C2=NN=C/C2=N\Nc2cc(C)cc(C)c2)cc1 | 4.13 µM | IC50 (HEPG2TOX_HILL_SLOPE 4.29, HEPG2TOX_R_SQUARED 0.94, PBLUC_HILL_SLOPE 14.3, PBLUC_R_SQUARED 0.412, read-out: LUCIFERASE INFECTION ASSAY - IC50): 3.54 µM
OCCNCCNCc1c(OCc2ccccc2F)ccc2ccccc12 | > 8.96 µM | IC50 [1]: > 8.96 µM
O=C(Nc1cccc(Cl)c1)C1=COC2=NC(=O)N(Cc3cccc(Cl)c3)CCN12 | > 10 µM | IC50 (HEPG2TOX_HILL_SLOPE 3.25, HEPG2TOX_R_SQUARED 0.784, PBLUC_HILL_SLOPE 3.78, PBLUC_R_SQUARED 0.178, read-out: LUCIFERASE INFECTION ASSAY - IC50): 6.88 µM
Cc1cccc(OCCN(C)Cc2cc(=O)n3c([nH]c4ccccc43)c2C#N)c1 | 7.03 µM | IC50 (HEPG2TOX_HILL_SLOPE 0.204, HEPG2TOX_R_SQUARED 0.162, PBLUC_HILL_SLOPE 2.87, PBLUC_R_SQUARED 0.544, read-out: LUCIFERASE INFECTION ASSAY - IC50): 3.27 µM
C/N=c1\scc(-c2cc3ccccc3o2)n1/N=C/c1cccc(O)c1O | > 10 µM | IC50 [1]: > 10 µM
O=C(Nc1nc2ccccc2[nH]1)c1cn(Cc2ccccc2)nc1-c1cccnc1 | > 10 µM | IC50 (PBLUC_HILL_SLOPE 3.18, PBLUC_R_SQUARED 0.533, read-out: LUCIFERASE INFECTION ASSAY - IC50): 7.1 µM
CN(C)C(=O)c1ccc(NCC(=O)N2N=C(c3ccc(Cl)cc3)CC2c2ccco2)cc1 (stereo not given) | 8.21 µM | IC50 (PBLUC_HILL_SLOPE 25.7, PBLUC_R_SQUARED 0.49, read-out: LUCIFERASE INFECTION ASSAY - IC50): 7.54 µM
COc1ccc(N2C(=O)/C(=C\NC3CCCCC3C)c3ccccc3C2=O)cc1OC (stereo not given) | > 10 µM | IC50 [1]: > 10 µM
CCc1cc2c(COC(=O)c3cc(C(C)=O)cn3C)cc(=O)oc2cc1O | > 10 µM | IC50 (PBLUC_HILL_SLOPE 9.37, PBLUC_R_SQUARED 0.164, read-out: LUCIFERASE INFECTION ASSAY - IC50): 8.69 µM
CC(C)N(CCNC(=O)c1ccc(CSc2nc3ccccc3s2)cc1)C(C)C | 9.07 µM | IC50 (PBLUC_HILL_SLOPE 4.35, PBLUC_R_SQUARED 0.48, read-out: LUCIFERASE INFECTION ASSAY - IC50): 5.47 µM
CCOC(=O)N1CCC(Nc2ncnc3c2oc2ccccc23)CC1 | > 10 µM | IC50 (PBLUC_HILL_SLOPE 2.64, PBLUC_R_SQUARED 0.787, read-out: LUCIFERASE INFECTION ASSAY - IC50): 6.72 µM
COc1ccccc1CNC(=O)CSc1nnc(-c2ccccc2)c2ccccc12 | > 10 µM | IC50 [1]: > 10 µM
COc1ccc(C(CNC(=O)Cc2coc3c(C)c(C)ccc23)N(C)C)cc1 (stereo not given) | 3.36 µM | IC50 (PBLUC_HILL_SLOPE 2.38, PBLUC_R_SQUARED 0.44, read-out: LUCIFERASE INFECTION ASSAY - IC50): 1.33 µM
O=[N+]([O-])c1ccc(N/N=C2\CCSc3ccc(Cl)cc32)cc1 | 9.78 µM | IC50 (FFLUC_HILL_SLOPE 1.76, FFLUC_R_SQUARED 0.654, HEPG2TOX_HILL_SLOPE 8.57, HEPG2TOX_R_SQUARED 0.177, PBLUC_HILL_SLOPE 41.5, PBLUC_R_SQUARED 0.423, read-out: LUCIFERASE INFECTION ASSAY - IC50): 9.27 µM
Cn1cc(Br)cc1C(=O)Nc1ccc2c(c1)OCCO2 | > 10 µM | IC50 [1]: > 10 µM
Cn1c(Nc2ccccc2)nc2cnc(-c3ccc4ccccc4c3)cc21 | > 10 µM | IC50 (PBLUC_HILL_SLOPE 3.04, PBLUC_R_SQUARED 0.156, read-out: LUCIFERASE INFECTION ASSAY - IC50): 6.85 µM
CCC(=O)N1CCCC(C(=O)NCc2ccc(C(C)C)cc2)CC1 (stereo not given) | > 9.99 µM | IC50 [1]: > 9.99 µM
Cc1nc(Nc2ccc(C(=O)N(C)C)cc2)c2c(-c3ccccc3)csc2n1 | 8.69 µM | IC50 (FFLUC_HILL_SLOPE 16.2, FFLUC_R_SQUARED 0.398, PBLUC_HILL_SLOPE 15.9, 4.17, PBLUC_R_SQUARED 0.757, 0.868, read-out: LUCIFERASE INFECTION ASSAY - IC50): 7.45 µM
O=[N+]([O-])c1ccc(-c2nnc(SCc3c(Cl)cccc3Cl)s2)o1 | > 8.5 µM | IC50 (FFLUC_HILL_SLOPE 3.16, FFLUC_R_SQUARED 0.676, read-out: LUCIFERASE INFECTION ASSAY - IC50): > 8.5 µM
CC(C(=O)NC(N)=O)N(C)Cc1ccc(OCc2ccc(Cl)cc2)cc1 (stereo not given) | 9.89 µM | IC50 (HEPG2TOX_HILL_SLOPE 2.51, HEPG2TOX_R_SQUARED 0.952, PBLUC_HILL_SLOPE 1.26, PBLUC_R_SQUARED 0.93, read-out: LUCIFERASE INFECTION ASSAY - IC50): 1.73 µM

SMILES | IC90 | further results
Cc1nn(-c2ccccc2)c(C)c1CN(C)S(=O)(=O)c1ccc(C#N)cc1 | 0.36 µM | IC50 (PBLUC_HILL_SLOPE 18, PBLUC_R_SQUARED 0.548, read-out: LUCIFERASE INFECTION ASSAY - IC50): 0.318 µM
CCc1c(C)[nH]c2c(-c3ccc(Cl)cc3)c(C)nn2c1=O | > 10.9 µM | IC50 (PBLUC_HILL_SLOPE 2.9, PBLUC_R_SQUARED 0.859, read-out: LUCIFERASE INFECTION ASSAY - IC50): 6.48 µM
Cc1cc(C(=O)COC(=O)c2ccccc2O)c(C)n1CC1CCCO1 (stereo not given) | 7.71 µM | IC50 (PBLUC_HILL_SLOPE 2.39, PBLUC_R_SQUARED 0.567, read-out: LUCIFERASE INFECTION ASSAY - IC50): 3.08 µM
C=CCN(C(=O)c1cccc(C)c1[N+](=O)[O-])c1nc2c(s1)CCCC2 | > 10 µM | IC50 (PBLUC_HILL_SLOPE 3.27, PBLUC_R_SQUARED 0.266, read-out: LUCIFERASE INFECTION ASSAY - IC50): 9.32 µM
Cc1cc(C)nc(-n2[nH]c(C)c(Cc3ccc(C(C)(C)C)cc3)c2=O)n1 | > 9.42 µM | IC50 (PBLUC_HILL_SLOPE 0.924, PBLUC_R_SQUARED 0.378, read-out: LUCIFERASE INFECTION ASSAY - IC50): 1.03 µM
O=C(c1[nH]c2ccccc2c1-c1ccccc1)N1CCOCC1 | 8.74 µM | IC50 (HEPG2TOX_HILL_SLOPE 1.63, HEPG2TOX_R_SQUARED 0.942, PBLUC_HILL_SLOPE 2.32, PBLUC_R_SQUARED 0.78, read-out: LUCIFERASE INFECTION ASSAY - IC50): 3.39 µM
CCOC(=O)c1sc(N)c(C#N)c1COC(=O)/C=C/c1cn(-c2ccccc2)nc1-c1ccc(C)cc1 | > 10 µM | IC50 (PBLUC_HILL_SLOPE 3.64, PBLUC_R_SQUARED 0.326, read-out: LUCIFERASE INFECTION ASSAY - IC50): 6.32 µM
OCCN1N=C2c3cc(Cl)ccc3SCC2C1c1ccc(Cl)cc1 (stereo not given) | > 8.7 µM | IC50 (PBLUC_HILL_SLOPE 3.12, PBLUC_R_SQUARED 0.594, read-out: LUCIFERASE INFECTION ASSAY - IC50): 7.08 µM
CCC(C)NC(=O)c1c(NC(=O)c2cccc(C(F)(F)F)c2)nc2ccc(C)cn12 (stereo not given) | 2.99 µM | IC50 (PBLUC_HILL_SLOPE 12.7, PBLUC_R_SQUARED 0.269, read-out: LUCIFERASE INFECTION ASSAY - IC50): 2.52 µM
Cc1cc(C)cc(NC(=O)c2cc(C(C)(C)C)n(-c3ccccc3)c2C)c1 | 5.09 µM | IC50 (PBLUC_HILL_SLOPE 2.05, PBLUC_R_SQUARED 0.76, read-out: LUCIFERASE INFECTION ASSAY - IC50): 1.74 µM
O=C(c1ccsc1)N1CCc2nc(NCc3cccc(Oc4ccccc4)c3)ncc2C1 | > 7.46 µM | IC50 (HEPG2TOX_HILL_SLOPE 8.11, HEPG2TOX_R_SQUARED 0.885, read-out: LUCIFERASE INFECTION ASSAY - IC50): > 7.46 µM
O=C(NC(=S)NNc1ncc(C(F)(F)F)cc1Cl)c1ccccc1 | 0.377 µM | IC50 (FFLUC_HILL_SLOPE 148, FFLUC_R_SQUARED 0.758, HEPG2TOX_HILL_SLOPE 0.501, HEPG2TOX_R_SQUARED 0.887, PBLUC_HILL_SLOPE 13.6, PBLUC_R_SQUARED 0.819, read-out: LUCIFERASE INFECTION ASSAY - IC50): 0.321 µM
CCc1cccc2c(C3=NNC(=Nc4ccc(S(=O)(=O)N5CCOCC5)cc4)SC3)c[nH]c12 | > 10 µM | IC50 (HEPG2TOX_HILL_SLOPE 14.9, HEPG2TOX_R_SQUARED 0.843, PBLUC_HILL_SLOPE 3.05, PBLUC_R_SQUARED 0.104, read-out: LUCIFERASE INFECTION ASSAY - IC50): 5.65 µM
O=C(Cc1csc(N2CCCC2=O)n1)Nc1nc(-c2ccc3c(c2)CCCC3)cs1 | > 10 µM | IC50 [1]: > 10 µM
CC(C)c1noc2ncc(C(=O)Nc3ccc(Cl)c(C(F)(F)F)c3)cc12 | 9.79 µM | IC50 (HEPG2TOX_HILL_SLOPE 7.95, HEPG2TOX_R_SQUARED 0.873, PBLUC_HILL_SLOPE 16.7, PBLUC_R_SQUARED 0.65, read-out: LUCIFERASE INFECTION ASSAY - IC50): 8.58 µM
CC(C)c1cc(Cl)n2ncc(-c3ccccc3)c2n1 | > 12.1 µM | IC50 (PBLUC_HILL_SLOPE 1.33, PBLUC_R_SQUARED 0.849, read-out: LUCIFERASE INFECTION ASSAY - IC50): 4.61 µM
CCOC(=O)c1ccccc1NC(=O)C1CCN(c2ncnc3sc(C)c(C)c23)CC1 | > 10 µM | IC50 (PBLUC_HILL_SLOPE 0.744, PBLUC_R_SQUARED 0.552, read-out: LUCIFERASE INFECTION ASSAY - IC50): 5.7 µM
Cc1cc(C(=O)COC(=O)c2ccc[nH]c2=O)c(C)n1CC1CCCO1 (stereo not given) | > 10 µM | IC50 (FFLUC_HILL_SLOPE 9.51, FFLUC_R_SQUARED 0.378, PBLUC_HILL_SLOPE 2.55, PBLUC_R_SQUARED 0.111, read-out: LUCIFERASE INFECTION ASSAY - IC50): 6.62 µM
Nc1ccc(SC(F)(F)F)cc1 | > 10 µM | IC50 [1]: > 10 µM
Cc1cccc2c(=O)nc(CSc3ncnc4sc(-c5ccccc5)cc34)[nH]c12 | > 10 µM | IC50 (HEPG2TOX_HILL_SLOPE 2.96, HEPG2TOX_R_SQUARED 0.569, read-out: LUCIFERASE INFECTION ASSAY - IC50): > 10 µM
